From patent US10590086B2, “Pharmaceutical compound” (IOmet Pharma Ltd., priority 2014, dated 2020) come the findings set out here.

For one assay, the target named is IDO (Homo sapiens, UniProt P14902). As to the kind of experiment: SKOV3 kynurenine cell-based assay (IDO induced by IFN-γ). Also on record: IDO expression was induced in the SKOV3 cells by the addition of 500 ng/ml IFN-γ; endogenous in cells; host or cells: SKOV3 (human ovarian adenocarcinoma), induced with IFN-γ. To be noted: SKOV3 human ovarian adenocarcinoma cells, 500 ng/ml IFN-γ, 48 hours, 500 μM L-tryptophan; read-out: SKOV3 Kynurenine cell based assay pIC50 (converted). The method, then:
(§1) Exemplary compounds of the invention were prepared, and tested to determine their effect as TDO and/or IDO inhibitors. Two different assays were employed: 1. a cell-based assay for detecting the effect of test compounds on kynurenine production in two different cancer cell types. This assay utilised cancer cells which expressed either TDO or IDO and as such was used as a means of testing compound activity at these two enzymes in a cell-based context. 2. a TDO and IDO biochemical coupled assay which utilised recombinantly produced and purified TDO and IDO enzymes in combination with the enzyme formamidase. This coupled enzyme system allowed conversion of N-formylkynurenine produced by TDO or IDO activity to kynurenine which was then quantified by fluorescence following addition of Erhlich's Reagent The protocols for these are set out below.
(§2) Cell Based Assay for Detection of Kynurenine Produced by TDO and/or IDO
(§3) A172 (human glioblastoma) and SKOV3 (human ovarian adenocarcinoma) cells were seeded in a 96 well plate at 30,000 or 40,000 cells per well respectively in phenol red-free RPMI supplemented with 10% FCS, 2 mM L-glutamine and 500 μM L-tryptophan. IDO expression was induced in the SKOV3 cells by the addition of 500 ng/ml IFN-γ. Cells were incubated at 37° C. with or without the addition of test compound. After 48 hours, the cells were removed by centrifugation and Erhlich's reagent was added to the supernatant. The Erhlich's reagent was incubated for 5 minutes before the absorbance was read at 490 nm.

A further assay deals with TDO (Homo sapiens, UniProt P48775). Put plainly: A172 kynurenine cell-based assay. The arrangement: This assay utilised cancer cells which expressed either TDO or IDO; endogenous in cells; host or cells: A172 (human glioblastoma). To be noted: A172 human glioblastoma cells, 48 hours, 500 μM L-tryptophan; read-out: A172 Kynurenine cell based assay pIC50 (converted). How it is done:
as §1, §2, §3

A value given as a limit tells only on which side of the number the result lay.

IDO, sequence (P14902 whole entry): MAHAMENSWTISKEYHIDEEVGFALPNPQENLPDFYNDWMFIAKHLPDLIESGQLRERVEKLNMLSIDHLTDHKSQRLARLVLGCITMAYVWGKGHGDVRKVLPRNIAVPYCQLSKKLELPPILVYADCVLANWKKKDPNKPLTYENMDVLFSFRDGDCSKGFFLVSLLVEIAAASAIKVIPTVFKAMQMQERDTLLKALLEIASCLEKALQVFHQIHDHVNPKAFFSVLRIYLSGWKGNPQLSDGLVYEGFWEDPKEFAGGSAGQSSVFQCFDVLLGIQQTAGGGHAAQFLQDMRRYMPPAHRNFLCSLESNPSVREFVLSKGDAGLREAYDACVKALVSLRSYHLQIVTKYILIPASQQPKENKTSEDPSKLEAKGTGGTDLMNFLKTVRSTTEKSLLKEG
TDO, sequence (P48775 whole entry): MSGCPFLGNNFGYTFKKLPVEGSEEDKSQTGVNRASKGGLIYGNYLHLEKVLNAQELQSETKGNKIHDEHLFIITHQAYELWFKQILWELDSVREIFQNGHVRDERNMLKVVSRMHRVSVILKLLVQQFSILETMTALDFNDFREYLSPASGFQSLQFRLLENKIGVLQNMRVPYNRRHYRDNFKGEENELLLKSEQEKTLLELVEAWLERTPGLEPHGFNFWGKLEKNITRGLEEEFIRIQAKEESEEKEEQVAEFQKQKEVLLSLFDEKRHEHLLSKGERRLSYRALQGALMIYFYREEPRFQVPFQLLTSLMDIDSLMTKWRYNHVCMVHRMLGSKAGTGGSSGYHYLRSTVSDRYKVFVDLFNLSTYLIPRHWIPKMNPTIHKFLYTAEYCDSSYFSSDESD

Turning to `CNC(=O)N1CCN(c2cc(Cl)cc3[nH]ncc23)CC1` [Compound 80], the IC50 on IDO is 3.24 to 31.6 µM; at TDO, below 3.16 µM.

Consider `CC(=O)N1CCC(Oc2cccc3[nH]ncc23)CC1` [Compound 53], for which the IC50 on IDO is below 3.16 µM; at TDO it was 3.24 to 31.6 µM.

For `CCC1CN(c2cc(Cl)cc3[nH]ncc23)CCN1S(C)(=O)=O` (centres unmarked) [Compound 83], the IC50 is 3.24 to 31.6 µM at IDO and below 3.16 µM on TDO.

In the case of `c1ccc(CCNc2cccc3[nH]ncc23)cc1` [Compound 50], the IC50 at IDO and on TDO was 32.4 to 100 µM in each case.

`Cc1n[nH]c2cc(Cl)cc(N3CCN(S(C)(=O)=O)CC3)c12` [Compound 66]: the IC50 at IDO and on TDO was 3.24 to 31.6 µM in each case.

As for `CN(C)C(=O)N1CCC(c2cc(Cl)cc3[nH]ncc23)CC1` [Compound 132], the IC50 on IDO is 3.24 to 31.6 µM; on TDO, below 3.16 µM.

Turning to `CS(=O)(=O)N1CCC(c2cc(C(F)(F)F)cc3[nH]ncc23)CC1` [Compound 100], the IC50 at IDO is 3.24 to 31.6 µM; at TDO, below 3.16 µM.

Consider `CC(=O)N1CCN(c2cc(C3CCCC3)cc3[nH]ncc23)CC1(C)C` [Compound 149], for which the IC50 at IDO and at TDO was 3.24 to 31.6 µM throughout.

As for `CS(=O)(=O)N1CCC(Oc2cc(Cl)cc3c2cnn3CCO)CC1` [Compound 163], the IC50 was 32.4 to 100 µM on IDO and above 100 µM on TDO.

As to `O=C1NCCC12CCN(c1cc(Cl)cc3[nH]ncc13)CC2` [Compound 189], the IC50 on IDO and on TDO was 3.24 to 31.6 µM in each case.

With `CN(C)C(=O)CN1CCN(c2cc(Cl)cc3[nH]ncc23)CC1` [Compound 65], the IC50 on IDO is 32.4 to 100 µM; on TDO, 3.24 to 31.6 µM.

Regarding `Cc1cc(N2CCN(S(C)(=O)=O)CC2)c2cn[nH]c2c1` [Compound 31], the IC50 was 32.4 to 100 µM at IDO and below 3.16 µM on TDO.

Consider `CN(C)S(=O)(=O)N1CCN(c2cc(Cl)cc3[nH]ncc23)CC1` [Compound 119], for which the IC50 at IDO is 3.24 to 31.6 µM; at TDO, below 3.16 µM.

As for `CNC(=O)CN1CCN(c2cc(Cl)cc3[nH]ncc23)CC1` [Compound 59], the IC50 is 3.24 to 31.6 µM at IDO and below 3.16 µM at TDO.

Consider `CN1CC2CN(c3cc(Cl)cc4[nH]ncc34)CCN2C1=O` (centres unmarked) [Compound 122], for which the values for the IC50 at IDO and at TDO were 3.24 to 31.6 µM and below 3.16 µM, respectively.

Consider `CCCS(=O)(=O)N1CCC(c2cc(Cl)cc3[nH]ncc23)CC1` [Compound 140], for which the IC50 at IDO is 3.24 to 31.6 µM; on TDO, below 3.16 µM.

`CC(=O)N1CCCN(c2cccc3[nH]ncc23)CC1` [Compound 58]: the values for the IC50 at IDO and at TDO were above 100 µM and 3.24 to 31.6 µM, respectively.

On to `O=C(C1COC1)N1CCC(c2cc(Cl)cc3[nH]ncc23)CC1` [Compound 205], for which the IC50 on IDO was above 100 µM; on TDO it was below 3.16 µM.

Take `CS(=O)(=O)N1CCC(c2cc(N3CCOCC3)cc3[nH]ncc23)CC1` [Compound 206]: the IC50 is above 100 µM on IDO and 3.24 to 31.6 µM on TDO.

`NC(=O)N1CCN(c2cc(Cl)cc3[nH]ncc23)CC1` [Compound 110]: the IC50 at IDO is 3.24 to 31.6 µM; on TDO it was below 3.16 µM.

`CC1(C)CC(c2cc(Cl)cc3[nH]ncc23)CCN1S(C)(=O)=O` (centres unmarked) [Compound 175]: the IC50 is 3.24 to 31.6 µM at IDO and below 3.16 µM at TDO.

As to `CNS(=O)(=O)N1CCC(c2cc(Cl)cc3[nH]ncc23)CC1` [Compound 172], the IC50 is 3.24 to 31.6 µM at IDO and below 3.16 µM at TDO.

As to `CC(=O)N1CCN(c2cc(C(F)(F)F)cc3[nH]ncc23)CC1(C)C` [Compound 79], the IC50 on IDO and on TDO was below 3.16 µM each time.

For `CC(=O)N1CCN(c2cc(C3CC3)cc3[nH]ncc23)CC1(C)C` [Compound 126], the IC50 at IDO is 3.24 to 31.6 µM; on TDO it was below 3.16 µM.

`COCC(=O)N1CCN(c2cc(Cl)cc3[nH]ncc23)CC1` [Compound 112]: the IC50 at IDO is 3.24 to 31.6 µM; on TDO it was below 3.16 µM.

`CS(=O)(=O)N1CCN(c2cc(N3CCCC3)cc3[nH]ncc23)CC1` [Compound 146]: the IC50 is above 100 µM on IDO and 32.4 to 100 µM at TDO.

On to `O=C1NC(=O)C2(CCN(c3cc(C(F)(F)F)cc4[nH]ncc34)CC2)N1` [Compound 185], for which the IC50 at IDO and on TDO was below 3.16 µM in each case.

Regarding `CC1(C)CC(c2cccc3[nH]ncc23)CCN1S(C)(=O)=O` (centres unmarked) [Compound 187], the IC50 at IDO is 32.4 to 100 µM; on TDO, 3.24 to 31.6 µM.

In the case of `CS(=O)(=O)N1CCC(O)(c2cc(Cl)cc3[nH]ncc23)CC1` [Compound 123], the IC50 at IDO was 3.24 to 31.6 µM; at TDO, below 3.16 µM.

Turning to `CS(=O)(=O)NCC1CCN(c2cc(Cl)cc3[nH]ncc23)CC1` [Compound 98], the values for the IC50 at IDO and at TDO were 3.24 to 31.6 µM and below 3.16 µM, respectively.

With `CS(=O)(=O)N1CCC(c2ccc(Cl)c3[nH]ncc23)CC1` [Compound 42], the IC50 at IDO was 3.24 to 31.6 µM; on TDO, 32.4 to 100 µM.

`CN(C)C(=O)N1CCN(c2cc(Cl)cc3[nH]ncc23)CC1` [Compound 82]: the IC50 at IDO is 3.24 to 31.6 µM; on TDO, below 3.16 µM.

Take `Cn1ncc2c(N3CCN(S(C)(=O)=O)C(C)(C)C3)cc(Cl)cc21` [Compound 105]: the IC50 at IDO is 32.4 to 100 µM; at TDO, above 100 µM.

Regarding `CC1(C)CN(c2cc(-c3ncco3)cc3[nH]ncc23)CCN1S(C)(=O)=O` [Compound 171], the IC50 was above 100 µM at IDO and 3.24 to 31.6 µM on TDO.

Take `CCCS(=O)(=O)N1CCN(c2cccc3[nH]ncc23)CC1` [Compound 16]: the figures for the IC50 on IDO and at TDO were 32.4 to 100 µM and 3.24 to 31.6 µM, respectively.

For the compound `CS(=O)(=O)c1ccc(Nc2cc(Cl)cc3[nH]ncc23)cc1` [Compound 180], the IC50 was 32.4 to 100 µM on IDO and 3.24 to 31.6 µM on TDO.

As for `CS(=O)(=O)NC1CCN(c2cc(Cl)cc3[nH]ncc23)C1` (centres unmarked) [Compound 193], the IC50 at IDO was 3.24 to 31.6 µM; on TDO, below 3.16 µM.

On to `CCC(=O)N1CCC(c2cc(Cl)cc3[nH]ncc23)CC1` [Compound 170], for which the IC50 on IDO was 3.24 to 31.6 µM; on TDO, below 3.16 µM.

For the compound `CC(=O)N1CCC(Oc2cc(Cl)cc3[nH]ncc23)CC1` [Compound 160], the IC50 was 3.24 to 31.6 µM at IDO and below 3.16 µM on TDO.

Turning to `CC(C)(O)C(=O)N1CCN(c2cc(Cl)cc3[nH]ncc23)CC1` [Compound 111], the IC50 was 3.24 to 31.6 µM at IDO and below 3.16 µM at TDO.

For `Cc1ccc(C2CCN(S(C)(=O)=O)CC2)c2cn[nH]c12` [Compound 39], the IC50 is 32.4 to 100 µM at IDO and above 100 µM at TDO.

`CS(=O)(=O)N1CCN(c2cc(Cl)cc3[nH]ncc23)CC12CCC2` [Compound 181]: the IC50 at IDO and on TDO was below 3.16 µM in each case.

As for `CC(=O)N1CCN(c2cc(Cl)cc3[nH]ncc23)CC12CCC2` [Compound 182], the values for the IC50 at IDO and on TDO were 3.24 to 31.6 µM and below 3.16 µM, respectively.

Consider `COCCn1ncc2c(OC3CCN(S(C)(=O)=O)CC3)cc(Cl)cc21` [Compound 162], for which the IC50 at IDO was 32.4 to 100 µM; at TDO, above 100 µM.

For the compound `CS(=O)(=O)N1CCN(c2cc(C3CC3)cc3[nH]ncc23)CC1` [Compound 101], the IC50 at IDO was above 100 µM; on TDO, 3.24 to 31.6 µM.

Turning to `CC(=O)N1CCN(c2cc(Cl)cc3[nH]ncc23)CC12CC2` [Compound 93], the figures for the IC50 on IDO and on TDO were 3.24 to 31.6 µM and below 3.16 µM, respectively.
